Data set [1] concerns the target aryl hydrocarbon receptor (AHR) (Homo sapiens, UniProt P35869). Kind of data set: Selectivity interaction (Panel of kinases, GPCRs, ion channels and transporters (enzymatic assay)) EUB0000266bCl AHR.
The target in data set [2] is Cyclin-dependent kinase 5 (Homo sapiens, UniProt Q00535). Put plainly: Selectivity interaction (Ambit KINOMEscan and KiNATiv profiling in Jurkat cells) EUB0000090b CDK5. It is filed as cell-based. The following applies: at 1 µM.
The target in data set [3] is Citron Rho-interacting kinase (Homo sapiens) (UniProt O14578). The following applies: at 10 µM.
The target of data set [4] is Thromboxane-A synthase (Homo sapiens) (UniProt P24557). Kind of data set: Selectivity interaction (Eurofins safety panel) EUB0001564a CYP5A1. The settings on record: at 10 µM.
The target of data set [5] is Fibroblast growth factor receptor 1 (Homo sapiens, UniProt P11362). Put plainly: Selectivity interaction (KinomeScan (DiscoverX)) EUB0000695a FGFR1. The settings on record: at 100 nM.
In data set [6] the target is Calcium/calmodulin-dependent protein kinase type II subunit gamma (Homo sapiens) (UniProt Q13555). Kind of data set: Selectivity interaction (KinomeScan (DiscoverX)) EUB0000666a CAMK2G. The following applies: at 10 µM.
Data set [7] has as its target Serine/threonine-protein kinase 38-like (Homo sapiens) (UniProt Q9Y2H1). Put plainly: Selectivity interaction (LanthaScreen Eu Kinase Binding Assay) EUB0001632a STK38L. The following applies: at 10 µM. In general terms: Time-resolved FRET reads energy transfer from a long-lived donor to a nearby acceptor.
In data set [8] the target is Cell division control protein 42 homolog (Homo sapiens) (UniProt P60953). Kind of data set: Selectivity interaction (SelectScreen profiling (Invitrogen)) EUB0000607a CDC42. The settings on record: at 2 µM.
Data set [9] has as its target T1, Serine/threonine-protein kinase Nek8 (Homo sapiens) (UniProt Q86SG6).
T1 sequence (whole entry): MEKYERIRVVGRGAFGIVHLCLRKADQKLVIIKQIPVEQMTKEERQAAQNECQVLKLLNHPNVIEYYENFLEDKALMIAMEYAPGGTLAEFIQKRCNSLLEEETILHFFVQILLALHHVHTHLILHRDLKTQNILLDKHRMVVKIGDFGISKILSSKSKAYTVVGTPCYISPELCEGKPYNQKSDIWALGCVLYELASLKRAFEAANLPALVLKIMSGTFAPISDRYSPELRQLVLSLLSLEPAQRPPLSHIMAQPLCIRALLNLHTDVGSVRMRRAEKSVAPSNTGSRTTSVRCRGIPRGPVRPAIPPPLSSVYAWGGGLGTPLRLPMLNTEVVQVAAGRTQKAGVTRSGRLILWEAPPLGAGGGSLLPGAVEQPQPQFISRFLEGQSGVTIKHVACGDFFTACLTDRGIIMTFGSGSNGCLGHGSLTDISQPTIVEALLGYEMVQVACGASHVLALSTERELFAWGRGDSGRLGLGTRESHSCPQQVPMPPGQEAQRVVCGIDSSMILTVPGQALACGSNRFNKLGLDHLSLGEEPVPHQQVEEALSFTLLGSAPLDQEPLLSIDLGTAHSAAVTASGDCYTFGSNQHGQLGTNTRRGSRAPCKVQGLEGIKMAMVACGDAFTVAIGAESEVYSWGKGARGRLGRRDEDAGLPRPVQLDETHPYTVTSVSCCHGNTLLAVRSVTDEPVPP
Kind of data set: Selectivity interaction (ActivX KiNativ screen (kinase selectivity in THP-1 cell lysates)) EUB0000639a NEK8. It is filed as subcellular. The following applies: lysate.

The target of data set [10] is T2, Phosphatidylinositol 3-kinase C2 domain-containing subunit gamma (Homo sapiens) (UniProt O75747).
T2 sequence (whole entry): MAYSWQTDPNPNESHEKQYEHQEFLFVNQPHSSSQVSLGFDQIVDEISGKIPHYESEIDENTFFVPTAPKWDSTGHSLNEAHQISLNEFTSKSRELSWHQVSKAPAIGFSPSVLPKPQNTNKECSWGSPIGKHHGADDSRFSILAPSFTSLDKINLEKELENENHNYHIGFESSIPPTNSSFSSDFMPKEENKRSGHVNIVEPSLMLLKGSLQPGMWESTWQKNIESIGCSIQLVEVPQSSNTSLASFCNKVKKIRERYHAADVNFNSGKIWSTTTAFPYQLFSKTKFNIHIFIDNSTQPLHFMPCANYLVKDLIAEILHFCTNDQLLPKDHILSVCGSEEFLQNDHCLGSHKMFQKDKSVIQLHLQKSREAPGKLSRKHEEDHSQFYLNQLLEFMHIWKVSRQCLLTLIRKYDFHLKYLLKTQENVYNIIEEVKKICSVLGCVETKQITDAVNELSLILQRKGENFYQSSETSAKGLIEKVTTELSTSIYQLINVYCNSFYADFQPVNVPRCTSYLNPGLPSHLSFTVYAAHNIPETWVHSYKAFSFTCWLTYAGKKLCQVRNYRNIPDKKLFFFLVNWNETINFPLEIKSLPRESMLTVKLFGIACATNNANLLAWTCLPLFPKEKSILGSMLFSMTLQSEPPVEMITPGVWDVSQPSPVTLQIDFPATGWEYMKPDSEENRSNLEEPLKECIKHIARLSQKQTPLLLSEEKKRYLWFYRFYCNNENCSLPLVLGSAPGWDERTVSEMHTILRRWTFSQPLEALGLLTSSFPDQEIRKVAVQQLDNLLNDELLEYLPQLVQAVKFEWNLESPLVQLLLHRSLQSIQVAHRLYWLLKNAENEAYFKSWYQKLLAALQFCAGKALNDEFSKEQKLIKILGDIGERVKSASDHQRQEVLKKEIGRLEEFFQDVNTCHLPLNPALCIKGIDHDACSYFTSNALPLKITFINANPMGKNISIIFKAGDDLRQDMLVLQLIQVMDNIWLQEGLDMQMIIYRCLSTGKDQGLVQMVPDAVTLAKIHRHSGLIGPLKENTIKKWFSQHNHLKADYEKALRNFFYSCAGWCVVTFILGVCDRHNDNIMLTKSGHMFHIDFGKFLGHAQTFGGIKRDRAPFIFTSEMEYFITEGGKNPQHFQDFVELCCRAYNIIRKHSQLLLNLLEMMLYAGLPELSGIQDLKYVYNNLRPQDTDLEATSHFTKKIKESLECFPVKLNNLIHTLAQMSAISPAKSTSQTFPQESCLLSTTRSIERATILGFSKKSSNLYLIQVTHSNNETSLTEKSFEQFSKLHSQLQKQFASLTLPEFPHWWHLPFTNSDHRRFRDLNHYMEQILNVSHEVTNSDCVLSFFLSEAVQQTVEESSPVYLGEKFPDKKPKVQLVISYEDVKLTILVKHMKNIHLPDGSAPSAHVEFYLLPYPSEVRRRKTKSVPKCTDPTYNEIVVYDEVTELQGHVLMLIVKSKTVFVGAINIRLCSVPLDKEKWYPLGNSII
Put plainly: Selectivity interaction (KinomeScan (DiscoverX)) EUB0000595a PIK3C2G. The settings on record: at 10 µM.

The target in data set [11] is Death-associated protein kinase 1 (Homo sapiens, UniProt P53355). Put plainly: Selectivity interaction (KinomeScan (DiscoverX)) EUB0001619a DAPK1. The following applies: at 1 µM.
Data set [12] addresses Calcium/calmodulin-dependent protein kinase type 1 (Homo sapiens) (UniProt Q14012). Put plainly: Selectivity interaction (KinomeScan (DiscoverX)) EUB0000618a CAMK1. The settings on record: at 10 µM.

Calcium/calmodulin-dependent protein kinase type II subunit gamma (Homo sapiens), sequence (Q13555 whole entry): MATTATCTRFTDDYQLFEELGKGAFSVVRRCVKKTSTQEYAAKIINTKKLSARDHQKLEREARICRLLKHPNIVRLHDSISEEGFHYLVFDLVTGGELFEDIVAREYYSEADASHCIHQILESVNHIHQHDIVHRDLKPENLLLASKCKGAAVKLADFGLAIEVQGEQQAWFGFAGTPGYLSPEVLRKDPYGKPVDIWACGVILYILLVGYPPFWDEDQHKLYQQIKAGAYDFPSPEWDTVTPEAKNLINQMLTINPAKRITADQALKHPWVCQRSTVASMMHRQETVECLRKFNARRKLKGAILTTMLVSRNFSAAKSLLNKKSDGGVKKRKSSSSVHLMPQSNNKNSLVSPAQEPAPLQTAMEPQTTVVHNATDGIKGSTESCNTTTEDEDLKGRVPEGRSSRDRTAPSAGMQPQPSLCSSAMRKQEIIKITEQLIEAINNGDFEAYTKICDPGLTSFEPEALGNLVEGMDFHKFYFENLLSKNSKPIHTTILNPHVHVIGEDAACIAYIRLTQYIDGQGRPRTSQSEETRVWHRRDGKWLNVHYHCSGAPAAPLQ
Death-associated protein kinase 1, sequence (P53355 whole entry, looked up): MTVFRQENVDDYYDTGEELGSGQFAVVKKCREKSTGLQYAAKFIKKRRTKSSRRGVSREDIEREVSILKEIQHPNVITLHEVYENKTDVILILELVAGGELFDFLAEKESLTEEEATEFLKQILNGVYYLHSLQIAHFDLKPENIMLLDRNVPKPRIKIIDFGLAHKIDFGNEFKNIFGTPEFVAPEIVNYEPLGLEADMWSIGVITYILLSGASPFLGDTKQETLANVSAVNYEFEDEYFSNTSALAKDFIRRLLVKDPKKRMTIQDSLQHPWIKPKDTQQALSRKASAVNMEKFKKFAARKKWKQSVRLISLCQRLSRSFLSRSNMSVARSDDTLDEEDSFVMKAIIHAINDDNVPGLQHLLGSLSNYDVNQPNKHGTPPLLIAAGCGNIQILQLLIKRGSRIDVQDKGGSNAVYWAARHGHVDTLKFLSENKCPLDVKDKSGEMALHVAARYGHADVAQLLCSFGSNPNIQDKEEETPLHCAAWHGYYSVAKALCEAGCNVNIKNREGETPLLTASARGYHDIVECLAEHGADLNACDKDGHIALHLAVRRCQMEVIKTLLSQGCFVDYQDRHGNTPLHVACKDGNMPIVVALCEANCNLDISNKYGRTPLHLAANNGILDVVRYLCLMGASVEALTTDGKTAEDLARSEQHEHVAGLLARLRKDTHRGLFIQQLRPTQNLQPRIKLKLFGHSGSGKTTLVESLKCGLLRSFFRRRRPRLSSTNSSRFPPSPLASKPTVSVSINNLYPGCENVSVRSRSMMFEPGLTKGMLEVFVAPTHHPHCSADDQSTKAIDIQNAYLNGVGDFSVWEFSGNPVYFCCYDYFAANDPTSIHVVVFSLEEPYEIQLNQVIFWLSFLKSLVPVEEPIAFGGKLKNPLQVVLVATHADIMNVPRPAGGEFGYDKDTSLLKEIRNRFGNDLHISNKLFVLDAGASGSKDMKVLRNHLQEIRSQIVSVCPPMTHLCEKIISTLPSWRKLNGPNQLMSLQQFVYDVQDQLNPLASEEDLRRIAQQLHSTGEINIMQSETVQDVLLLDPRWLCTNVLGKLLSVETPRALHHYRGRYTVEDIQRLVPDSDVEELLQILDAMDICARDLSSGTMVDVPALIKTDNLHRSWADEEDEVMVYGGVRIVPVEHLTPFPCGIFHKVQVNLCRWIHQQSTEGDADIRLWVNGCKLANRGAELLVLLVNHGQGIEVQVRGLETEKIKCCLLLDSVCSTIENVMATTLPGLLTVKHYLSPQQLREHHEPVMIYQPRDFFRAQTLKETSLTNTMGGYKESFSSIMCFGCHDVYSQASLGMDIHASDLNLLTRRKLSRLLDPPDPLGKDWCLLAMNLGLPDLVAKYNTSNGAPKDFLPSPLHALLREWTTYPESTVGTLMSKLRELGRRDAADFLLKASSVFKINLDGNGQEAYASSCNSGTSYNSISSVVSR
Cyclin-dependent kinase 5, sequence (Q00535 whole entry, looked up): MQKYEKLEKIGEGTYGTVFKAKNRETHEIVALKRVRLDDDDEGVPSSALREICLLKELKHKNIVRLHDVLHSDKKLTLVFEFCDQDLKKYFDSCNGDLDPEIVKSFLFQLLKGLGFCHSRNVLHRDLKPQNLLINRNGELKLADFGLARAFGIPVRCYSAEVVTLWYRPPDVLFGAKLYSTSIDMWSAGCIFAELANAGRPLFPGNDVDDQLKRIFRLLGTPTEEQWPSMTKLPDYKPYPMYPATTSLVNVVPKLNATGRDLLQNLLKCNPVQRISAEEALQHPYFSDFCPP
Calcium/calmodulin-dependent protein kinase type 1 (Homo sapiens), sequence (Q14012 whole entry, looked up): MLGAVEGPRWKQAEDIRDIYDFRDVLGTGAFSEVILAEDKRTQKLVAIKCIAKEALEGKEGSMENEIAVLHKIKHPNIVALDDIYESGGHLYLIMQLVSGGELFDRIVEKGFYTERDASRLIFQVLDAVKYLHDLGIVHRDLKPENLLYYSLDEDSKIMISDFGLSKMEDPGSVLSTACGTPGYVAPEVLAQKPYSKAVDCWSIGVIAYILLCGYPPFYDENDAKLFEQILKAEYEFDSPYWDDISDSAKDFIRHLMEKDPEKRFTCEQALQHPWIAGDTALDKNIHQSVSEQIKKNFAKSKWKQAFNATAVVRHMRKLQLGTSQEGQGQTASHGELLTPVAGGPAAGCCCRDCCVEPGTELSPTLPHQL
Serine/threonine-protein kinase 38-like (Homo sapiens), sequence (Q9Y2H1 2-464 limits assumed): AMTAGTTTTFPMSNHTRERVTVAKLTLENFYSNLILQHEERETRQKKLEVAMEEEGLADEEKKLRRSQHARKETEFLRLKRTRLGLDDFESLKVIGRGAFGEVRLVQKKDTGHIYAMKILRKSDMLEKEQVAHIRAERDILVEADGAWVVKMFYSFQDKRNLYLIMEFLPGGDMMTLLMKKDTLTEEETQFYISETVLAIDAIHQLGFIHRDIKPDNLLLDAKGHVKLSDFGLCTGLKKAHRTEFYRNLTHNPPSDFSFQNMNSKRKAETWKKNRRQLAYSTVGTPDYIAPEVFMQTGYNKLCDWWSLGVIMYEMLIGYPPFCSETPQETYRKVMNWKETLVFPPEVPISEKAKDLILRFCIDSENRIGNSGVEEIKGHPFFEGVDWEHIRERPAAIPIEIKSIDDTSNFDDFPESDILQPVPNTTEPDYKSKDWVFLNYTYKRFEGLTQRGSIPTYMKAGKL
Fibroblast growth factor receptor 1, sequence (P11362 22-822 limits assumed): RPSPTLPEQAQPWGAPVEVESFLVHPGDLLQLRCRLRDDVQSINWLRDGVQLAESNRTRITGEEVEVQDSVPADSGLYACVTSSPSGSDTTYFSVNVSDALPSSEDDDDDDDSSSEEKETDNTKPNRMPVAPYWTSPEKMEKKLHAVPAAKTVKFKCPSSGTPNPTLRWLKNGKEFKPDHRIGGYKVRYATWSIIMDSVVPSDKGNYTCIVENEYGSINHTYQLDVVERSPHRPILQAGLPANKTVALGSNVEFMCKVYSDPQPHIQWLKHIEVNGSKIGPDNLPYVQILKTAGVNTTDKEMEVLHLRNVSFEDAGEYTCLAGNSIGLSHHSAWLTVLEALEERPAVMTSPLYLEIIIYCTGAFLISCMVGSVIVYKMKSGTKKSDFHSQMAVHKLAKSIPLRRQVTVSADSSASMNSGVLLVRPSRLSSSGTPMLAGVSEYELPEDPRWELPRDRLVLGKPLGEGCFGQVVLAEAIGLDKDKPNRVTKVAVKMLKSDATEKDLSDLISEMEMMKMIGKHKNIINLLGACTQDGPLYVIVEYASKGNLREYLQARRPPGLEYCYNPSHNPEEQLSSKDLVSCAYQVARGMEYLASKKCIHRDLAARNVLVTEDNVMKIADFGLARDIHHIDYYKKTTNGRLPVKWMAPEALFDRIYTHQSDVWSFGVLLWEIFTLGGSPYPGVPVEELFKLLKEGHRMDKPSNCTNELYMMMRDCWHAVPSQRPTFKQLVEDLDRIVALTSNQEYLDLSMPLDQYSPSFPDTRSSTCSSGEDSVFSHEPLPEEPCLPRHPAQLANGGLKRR
Cell division control protein 42 homolog (Homo sapiens), sequence (P60953 whole entry, looked up): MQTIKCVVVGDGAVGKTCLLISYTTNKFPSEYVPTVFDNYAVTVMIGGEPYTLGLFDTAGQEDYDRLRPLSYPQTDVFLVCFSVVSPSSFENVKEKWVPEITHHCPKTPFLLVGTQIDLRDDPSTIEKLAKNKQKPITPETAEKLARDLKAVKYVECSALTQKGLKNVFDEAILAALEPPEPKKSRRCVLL
aryl hydrocarbon receptor (AHR), sequence (P35869 whole entry): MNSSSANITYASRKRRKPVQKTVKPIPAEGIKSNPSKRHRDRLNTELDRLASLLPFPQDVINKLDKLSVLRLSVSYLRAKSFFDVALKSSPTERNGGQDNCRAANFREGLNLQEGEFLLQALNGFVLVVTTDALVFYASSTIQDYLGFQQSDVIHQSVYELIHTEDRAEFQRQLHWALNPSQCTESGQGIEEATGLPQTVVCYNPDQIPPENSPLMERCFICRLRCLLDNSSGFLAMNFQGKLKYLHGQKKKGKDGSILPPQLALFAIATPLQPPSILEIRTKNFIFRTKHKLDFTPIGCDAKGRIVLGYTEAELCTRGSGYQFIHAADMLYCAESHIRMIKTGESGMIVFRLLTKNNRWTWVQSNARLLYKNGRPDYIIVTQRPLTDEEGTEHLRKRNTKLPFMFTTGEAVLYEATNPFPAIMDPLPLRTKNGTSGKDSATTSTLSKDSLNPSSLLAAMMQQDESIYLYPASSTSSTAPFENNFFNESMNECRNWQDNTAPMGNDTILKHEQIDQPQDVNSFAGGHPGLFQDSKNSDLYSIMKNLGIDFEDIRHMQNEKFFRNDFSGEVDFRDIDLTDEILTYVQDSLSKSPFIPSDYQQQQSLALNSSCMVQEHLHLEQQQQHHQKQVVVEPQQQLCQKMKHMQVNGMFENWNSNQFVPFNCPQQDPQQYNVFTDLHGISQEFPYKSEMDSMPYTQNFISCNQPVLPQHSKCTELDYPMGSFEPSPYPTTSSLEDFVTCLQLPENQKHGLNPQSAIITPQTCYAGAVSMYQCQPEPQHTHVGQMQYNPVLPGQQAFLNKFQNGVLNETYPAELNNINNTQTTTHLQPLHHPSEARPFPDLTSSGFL

Compound `CCn1c(-c2nc3cc(C(=O)N4CCCC(N)C4)ccc3n2C)cc2ccccc21` (stereo unspecified) had an XC50 in data set [1] greater than 100 µM.
On to `CN(C)C/C=C/C(=O)Nc1ccc(C(=O)N2CCCC(Nc3ncc(Cl)c(-c4c[nH]c5ccccc45)n3)C2)cc1` (stereo unspecified), for which the % of control in [2] was 89%.
Take `CCN(CC)CCCCNc1ncc2cc(-c3cc(OC)cc(OC)c3)c(NC(=O)NC(C)(C)C)nc2n1`: the % of control in data set [3] is 100%.
`CC[C@@H](Nc1c(C#N)c(-c2ccc(-c3cccc(C)c3F)cc2)nc2cnccc12)C(=O)O` [BAY-091]: the % of inhibition in data set [4] stood at 98%.
The compound `Cc1cc(F)c(C(=O)Nc2cccc(-c3nncn3C(C)C)n2)cc1-n1cnc(C2CC2)c1` returned a % of control in [5] of 100%.
As to `O=C(NOC[C@H](O)CO)c1ccc(F)c(F)c1Nc1ccc(I)cc1F`, in data set [6], the % of control is 100%.
As for `Cn1cc(-n2cnc3c(NCc4nc5cc(Cl)c(Cl)cc5[nH]4)nc(N4CCOCC4)nc32)cn1`, in data set [7], the % of inhibition was -54.8%.
Regarding `CNC(=O)Nc1ccc(-c2nc(N3CC4CCC(C3)O4)c3cnn(C4CCC5(CC4)OCCO5)c3n2)cc1`, in [8], the % of inhibition is 9%.
Regarding `CC[C@@H]1[C@H](F)C(=O)N[C@@H]1COc1nccc2cc(C(N)=O)c(OC)cc12` [ZIMLOVISERTIB], the % of inhibition in [9] (at 0.01 µM) was -12.6%; in data set [9] (at 0.04 µM), 9.8%; in data set [9] (at 0.2 µM) it was -2.6%; in [9] (at 1 µM), 3.4%; in [9] (at 5 µM), -20.5%.
The compound `COCC(=O)NC/C=C/c1ccc2ncnc(Nc3ccc(Oc4ccc(C)nc4)c(C)c3)c2c1` [CP-724714] registered a % of control in data set [10] of 24%.
`N#Cc1cccc(-c2c[nH]c3ncnc(N4CCOCC4)c23)c1` registered a % of control in data set [11] of 89%.
On to `O[C@H]1CC[C@H](Nc2ncc3nc(Nc4c(F)cc(F)cc4F)n([C@H]4CCOC4)c3n2)CC1`, for which the % of control in data set [12] was 100%.

These data come from ChEMBL document CHEMBL5465560, “Selectivity Literature for EUbOPEN Chemogenomic Library” (2024).
